The target in the assay is human recombinant KAT-II (Homo sapiens (Human), UniProt Q8N5Z0). As to the kind of experiment: KAT-II inhibitory test. The following applies: 3.0 μmol/L kynurenine, 37° C. for 1 hr, kynurenic acid by HPLC. Type of assay: biochemical. On the procedure:
The compounds described in the above-mentioned Examples were used for the KAT-II inhibitory test.
Human recombinant KAT-II was prepared as follows.
His tag and maltose binding protein tag were added to the N-terminal of a gene encoding human KAT-II (Genbank accession number: AF481738.1), and the obtained gene was incorporated into pET32 (Merck Nihon Millipore), which is an Escherichia coli expression vector. Human recombinant KAT-II produced by BL21(DE3) Escherichia coli (Merck Nihon Millipore, 69450) transformed using the plasmid was purified using an amylose resin column (New England Biolabs, #800-21 L).
The inhibitory action of the test compound on human recombinant KAT-II was determined by the following method.
To a reaction mixture (45 μL) containing 3.0 μmol/L kynurenine, 10 μmol/L pyridoxal phosphate, 2.0 ng/μL human recombinant KAT-II, and 150 mmol/L tris(hydroxymethyl)aminomethane-acetate buffer (pH 8.0) was added a 10% dimethyl sulfoxide solution (5 μL) of each test compound prepared, and the mixture was reacted at 37° C. for 1 hr. After the reaction, 50% trichloroacetic acid (5 μL) was added to terminate the reaction.
The resultant kynurenic acid was quantified as follows by high performance liquid chromatography. An enzyme reaction mixture was separated by an octadecylsilane reversed-phase column (SC-50DS, Eicom Corporation; mobile phase: 250 mmol/L zinc acetate, 50 mmol/L sodium acetate, and 5.0% acetonitrile (pH 6.2)) incubated at 30° C., and kynurenic acid was quantified using a fluorescence detector (RF-20Axs, Shimadzu Corporation) at excitation wavelength 354 nm, detection wavelength 460 nm. The analytical curve was drawn every time by an external standard method. Each test compound was tested by dual measurement at each concentration. The kynurenic acid level in the presence of a test compound at each concentration was converted into % relative to kynurenic acid resulting from a reaction with an enzyme alone as 100%, and the obtained values were fitted to S-curve to determine IC50.

Counter-ions that a name gives are not always drawn.

Chain of human recombinant KAT-II (Q8N5Z0 30-425): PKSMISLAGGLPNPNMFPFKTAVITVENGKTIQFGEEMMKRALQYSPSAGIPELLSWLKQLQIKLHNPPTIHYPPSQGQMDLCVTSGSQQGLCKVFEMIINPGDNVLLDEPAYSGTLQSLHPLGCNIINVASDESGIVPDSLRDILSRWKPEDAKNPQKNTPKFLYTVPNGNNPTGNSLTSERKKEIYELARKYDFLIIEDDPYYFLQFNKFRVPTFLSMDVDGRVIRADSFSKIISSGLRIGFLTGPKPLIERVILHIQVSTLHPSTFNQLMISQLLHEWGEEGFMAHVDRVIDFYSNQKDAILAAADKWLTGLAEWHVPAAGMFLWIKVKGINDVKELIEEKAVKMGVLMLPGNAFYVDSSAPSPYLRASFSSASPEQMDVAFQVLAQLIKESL

In the case of `CCc1nc(-n2nc(C)cc2C)nc2nc(N3CCC[C@@H]3C(=O)NCc3ccccc3)sc12` [Example 103, (R)—N-benzyl-1-[5-(3,5-dimethyl-1H-pyrazol-1-yl)-7-ethyl[1,3]thiazolo[4,5-d]pyrimidin-2-yl]pyrrolidine-2-carboxamide], the IC50 came out at 200 nM.

For the compound `CN(C)c1nc(C2CC2)c2sc(N3CCC[C@@H]3C(=O)NCc3ccccc3)nc2n1` [Example 106, (R)—N-benzyl-1-[7-cyclopropyl-5-(N,N-dimethylamino)[1,3]thiazolo[4,5-d]pyrimidin-2-yl]pyrrolidine-2-carboxamide], the IC50 was determined as 920 nM.

`Cc1nc2nc(N3CCC[C@@H]3C(=O)NCc3ccccc3)sc2c(=O)n1C` [Example 109, (R)—N-benzyl-1-(5,6-dimethyl-7-oxo-6,7-dihydro[1,3]thiazolo[4,5-d]pyrimidin-2-yl)pyrrolidine-2-carboxamide]: the IC50 was 840 nM.

Turning to `N#Cc1cnc2nc(N3CCC[C@@H]3C(=O)NCc3ccccc3)sc2c1C1CC1` [Example 161], the IC50 was found to be 81 nM.

Take `CC(C)c1ncnc2nc(N3CCC[C@@H]3C(=O)NCc3ccccc3)sc12` [Example 28]: the IC50 was 190 nM.

Consider `CCc1nc(C2CC2)nc2nc(N3CCC[C@@H]3C(=O)NCc3ccccc3)sc12` [Example 41], for which the IC50 is 170 nM.

With `N#CC1(c2cnc3nc(N4CCC[C@@H]4C(=O)NCc4ccccc4)sc3c2)CCOCC1` [Example 116], the half-inhibitory concentration (IC50) was determined as 90 nM.

In the case of `O=C(NCc1ccccc1)[C@H]1CCCN1c1nc2nc(CC3CCOCC3)nc(C3CC3)c2s1` [Example 46], the IC50 amounted to 35 nM.

Consider `CC(C)(C)c1ncnc2nc(N3CCC[C@@H]3C(=O)NCc3ccccc3)sc12` [Example 30], for which the IC50 turned out to be 270 nM.

On to `O=C(NCc1ccccc1)[C@H]1CSCN1c1nc2ncnc(C3CC3)c2s1` [Example 100, (S)—N-benzyl-3-(7-cyclopropyl[1,3]thiazolo[4,5-d]pyrimidin-2-yl)-1,3-thiazolidine-4-carboxamide], for which the IC50 came to 240 nM.

For `O=C(NCc1ccc(F)cc1)[C@H]1CCCN1c1nc2ncc(C3CC3)cc2s1` [Example 162, (R)-1-(6-cyclopropyl[1,3]thiazolo[4,5-b]pyridin-2-yl)-N-(4-fluorobenzyl)pyrrolidine-2-carboxamide], the IC50 was determined as 300 nM.

For the compound `O=C(NCc1ccccc1)[C@H]1CCCN1c1nc2ncc(C3CC3)nc2s1` [Example 192, (R)—N-benzyl-1-(6-cyclopropyl[1,3]thiazolo[4,5-b]pyrazin-2-yl)pyrrolidine-2-carboxamide], the IC50 turned out to be 33 nM.

Turning to `Cc1nc(-c2cnc3nc(N4CCC[C@@H]4C(=O)NCc4ccccc4)sc3c2)no1` [Example 183, (R)—N-benzyl-1-[6-(5-methyl-1,2,4-oxadiazol-3-yl)[1,3]thiazolo[4,5-b]pyridin-2-yl]pyrrolidine-2-carboxamide], the IC50 turned out to be 640 nM.

On to `CCNc1nc(C(F)(F)F)nc2nc(N3CCC[C@@H]3C(=O)NCc3ccccc3)sc12` [Example 67], for which the IC50 amounted to 12 nM.

Take `Cc1cnc2nc([C@H]3CCCN3C(=O)Oc3ccccc3)sc2c1` [Example 197, phenyl (R)-2-(6-methyl[1,3]thiazolo[4,5-b]pyridin-2-yl) pyrrolidine-1-carboxylate]: the IC50 turned out to be 3000 nM.

Consider `COCc1ncnc2nc(N3CCC[C@@H]3C(=O)NCc3ccccc3)sc12` [Example 33], for which the IC50 was 600 nM.

Regarding `CN(c1nc2ncnc(C3CC3)c2s1)[C@@H](C(=O)NCc1ccccc1)C1CC1` [Example 93], the IC50 was found to be 140 nM.

Regarding `CCOc1nc(C2CCOCC2)nc2nc(N3CCC[C@@H]3C(=O)NCc3ccccc3)sc12` [Example 75], the IC50 is 95 nM.

Take `O=C(NCc1ccccc1)[C@H]1CCCN1c1nc2nc(C(F)F)nc(C3CCOCC3)c2s1` [Example 55]: the IC50 worked out at 410 nM.

With `CCc1cnc2nc(N3CCC[C@@H]3C(=O)NCc3ccccc3)sc2n1` [Example 187], the IC50 stood at 140 nM.

For the compound `CCc1cnc2nc(N3CCC[C@@H]3C(=O)NCc3ccc(F)cc3)sc2n1` [Example 188], the IC50 was found to be 300 nM.

Take `COCc1nc(C(F)(F)F)c2sc(N3CCC[C@@H]3C(=O)NCc3ccccc3)nc2n1` [Example 56]: the IC50 was found to be 230 nM.

As for `COCc1ccnc2nc(N3CCC[C@@H]3C(=O)NCc3ccccc3)sc12` [Example 141], the IC50 came to 320 nM.

In the case of `Cc1cnc2nc(N3CCC[C@@H]3C(=O)NCc3ccccc3)sc2c1C#N` [Example 136, (R)—N-benzyl-1-(7-cyano-6-methyl[1,3]thiazolo[4,5-b]pyridin-2-yl)pyrrolidine-2-carboxamide], the IC50 came to 490 nM.

Consider `CC1(c2ncnc3nc(N4CCC[C@@H]4C(=O)NCc4ccccc4)sc23)CC1` [Example 31, (R)—N-benzyl-1-[7-(1-methylcyclopropyl)[1,3]thiazolo[4,5-d]pyrimidin-2-yl]pyrrolidine-2-carboxamide], for which the IC50 was determined as 65 nM.

On to `CN(C)Cc1nc(C2CC2)c2sc(N3CCC[C@@H]3C(=O)NCc3ccccc3)nc2n1` [Example 58], for which the IC50 amounted to 640 nM.

For `COCc1cnc2nc(N3CCC[C@@H]3C(=O)NCc3ccccc3)sc2c1` [Example 159], the IC50 was 640 nM.

Take `Cc1nc(C(C)(C)c2cnc3nc(N4CCC[C@@H]4C(=O)NCc4ccccc4)sc3c2)no1` [Example 171, (R)—N-benzyl-1-{6-[2-(5-methyl-1,2,4-oxadiazol-3-yl)propan-2-yl][1,3]thiazolo[4,5-b]pyridin-2-yl}pyrrolidine-2-carboxamide]: the IC50 was 390 nM.

For the compound `O=C(NCc1ccccc1)[C@H]1CCCN1c1nc2ncc(C3(O)CCC3)cc2s1` [Example 126], the IC50 came to 190 nM.

Turning to `O=C(NCc1ccccc1)[C@H]1CCCN1c1nc2ncnc(OCC(F)(F)F)c2s1` [Example 70], the IC50 is 160 nM.

For `COCCc1ncnc2nc(N3CCC[C@@H]3C(=O)NCc3ccccc3)sc12` [Example 32], the IC50 stood at 390 nM.

Take `CCOc1ncnc2nc(N3CCC[C@@H]3C(=O)NCc3ccccc3)sc12` [Example 19, (R)—N-benzyl-1-(7-ethoxy[1,3]thiazolo[4,5-d]pyrimidin-2-yl)pyrrolidine-2-carboxamide]: the IC50 came out at 37 nM.

Turning to `C[C@H](C(=O)NCc1ccccc1)N(Cc1ccccn1)c1nc2ncnc(C3CC3)c2s1` [Example 39], the IC50 was 350 nM.

As for `CCc1c(-c2cnn(C)c2)cnc2nc(N3CCC[C@@H]3C(=O)NCc3ccccc3)sc12` [Example 170, (R)—N-benzyl-1-[7-ethyl-6-(1-methyl-1H-pyrazol-4-yl)[1,3]thiazolo[4,5-b]pyridin-2-yl]pyrrolidine-2-carboxamide], the IC50 turned out to be 34 nM.

Consider `CCc1ncnc2nc(N3CCC[C@@H]3C(=O)NCc3ccccc3)sc12` [Example 24], for which the IC50 was 200 nM.

With `COCCN(c1nc2ncnc(C3CC3)c2s1)[C@H](C)C(=O)NCc1ccccc1` [Example 38], the IC50 was determined as 410 nM.

Take `N#CC1(c2cnc3nc(N4CCC[C@@H]4C(=O)NCc4ccccc4)sc3c2)CCC1` [Example 115]: the IC50 is 70 nM.

With `O=C(NCc1ccccc1)[C@H]1CCCN1c1nc2ncc(OC3COC3)cc2s1` [Example 151], the IC50 stood at 270 nM.

Regarding `O=C(NCc1ccccc1)[C@H]1CCCN1c1nc2ncc(-c3ccccc3)nc2s1` [Example 189], the IC50 was determined as 210 nM.

On to `COCc1ncnc2nc(N3CCC[C@@H]3C(=O)N[C@H](C)c3ccccc3)sc12` [Example 34], for which the IC50 is 640 nM.

In the case of `O=C(NCc1ccccc1)[C@H]1CCCN1c1nc2ncc(C3CCOCC3)cc2s1` [Example 129], the IC50 is 72 nM.

As to `CN(C)Cc1cnc2nc(N3CCC[C@@H]3C(=O)NCc3ccccc3)sc2c1C1CC1` [Example 176, (R)—N-benzyl-1-{7-cyclopropyl-6-[(dimethylamino)methyl][1,3]thiazolo[4,5-b]pyridin-2-yl}pyrrolidine-2-carboxamide hydrochloride], the IC50 worked out at 190 nM.

On to `C[C@H](C(=O)NCc1ccccc1)N(C)c1nc2ncnc(C3CC3)c2s1` [Example 36, (R)—N-benzyl-2-[N′-(7-cyclopropyl[1,3]thiazolo[4,5-d]pyrimidin-2-yl)-N′-methylamino]propionamide], for which the IC50 was 64 nM.

Consider `CC(C)c1cnc2nc(N3CCC[C@@H]3C(=O)NCc3ccccc3)sc2c1` [Example 111], for which the IC50 is 210 nM.

Turning to `CCOc1c(COC)cnc2nc(N3CCC[C@@H]3C(=O)NCc3ccccc3)sc12` [Example 164], the IC50 turned out to be 150 nM.

As to `CN(c1nc2ncnc(C3CC3)c2s1)C(C)(C)C(=O)NCc1ccccc1` [Example 92], the IC50 worked out at 2100 nM.

For `COCC1(c2cnc3nc(N4CCC[C@@H]4C(=O)NCc4ccccc4)sc3c2)CC1` [Example 117], the IC50 was 170 nM.

For `CN(C)c1cnc2nc(N3CCC[C@@H]3C(=O)NCc3ccccc3)sc2n1` [Example 191], the IC50 is 210 nM.

The record behind these values is patent US10793582B2, “Bicyclic heterocyclic compound” (MITSUBISHI TANABE PHARMA CORPORATION, priority 2015, dated 2020).
